Measurements: ChEMBL document CHEMBL1201862, “PubChem BioAssay data set” (2004)
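Grown in 96-well plates, cells were treated for 48 hours with each compound at five concentrations. Insufficient inhibition: endpoint recorded as highest concentration tested. GI50 is the concentration that inhibits growth by half.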 Activity calls are given as the source filed them. Cut-off read from the data, not from the text of the source: active = GI50 up to about 1.1 µM and inactive = higher.

Experiments:
Assay in all cases: NCI anticancer screen, dose series, 48 h
SNB-19 = tested on: SNB-19
Malme-3M = tested on: Malme-3M
TK-10 = tested on: TK-10
CCRF-CEM = tested on: CCRF-CEM
DLD-1 = tested on: DLD-1
UACC-257 = tested on: UACC-257
SK-MEL-2 = tested on: SK-MEL-2
NCI-H522 = tested on: NCI-H522
SN12C = tested on: SN12C
786-0 = tested on: 786-0
MOLT-4 = tested on: MOLT-4
LOX IMVI = tested on: LOX IMVI
UACC-62 = tested on: UACC-62
HCT-116 = tested on: HCT-116
SF-295 = tested on: SF-295
KM-20L2 = tested on: KM-20L2
DMS-273 = tested on: DMS-273
XF498 = tested on: XF498
SNB-75 = tested on: SNB-75
U-251 = tested on: U-251
COLO 205 = tested on: COLO 205
SK-OV-3 = tested on: SK-OV-3
HCC 2998 = tested on: HCC 2998
K562 = tested on: K562
CAKI-1 = tested on: CAKI-1
SF-539 = tested on: SF-539
NCI-H23 = tested on: NCI-H23
RXF 393 = tested on: RXF 393
SR = tested on: SR
M19-MEL = tested on: M19-MEL
HOP-18 = tested on: HOP-18
A498 = tested on: A498
HCT-15 = tested on: HCT-15
RXF 631 = tested on: RXF 631
SW-620 = tested on: SW-620
UO-31 = tested on: UO-31
SK-MEL-5 = tested on: SK-MEL-5
IGROV-1 = tested on: IGROV-1
NCI-H226 = tested on: NCI-H226
A549 = tested on: A549
OVCAR-4 = tested on: OVCAR-4
SK-MEL-28 = tested on: SK-MEL-28
DMS-114 = tested on: DMS-114
ACHN = tested on: ACHN
OVCAR-8 = tested on: OVCAR-8
RPMI-8226 = tested on: RPMI-8226
SF-268 = tested on: SF-268
M14 = tested on: M14
OVCAR-5 = tested on: OVCAR-5
HT-29 = tested on: HT-29
NCI-H460 = tested on: NCI-H460
LXFL 529 = tested on: LXFL 529
HL-60 = tested on: HL-60
EKVX = tested on: EKVX
OVCAR-3 = tested on: OVCAR-3
HOP-62 = tested on: HOP-62
KM12 = tested on: KM12

## O=C(Nc1ccc(Cl)cc1)c1cc([N+](=O)[O-])ccc1O
SNB-19
  GI50: 3.77 µM (inactive)
Malme-3M
  GI50: 2.13 µM (inactive)
TK-10
  GI50: 5.58 µM (inactive)
CCRF-CEM
  GI50: 2.64 µM (inactive)
DLD-1
  GI50: 3.71 µM (inactive)
UACC-257
  GI50: 4.84 µM (inactive)
SK-MEL-2
  GI50: 2.61 µM (inactive)
NCI-H522
  GI50: 2.09 µM (inactive)
SN12C
  GI50: 4.07 µM (inactive)
786-0
  GI50: 3.76 µM (inactive)
MOLT-4
  GI50: 2.58 µM (inactive)
LOX IMVI
  GI50: 3.29 µM (inactive)
UACC-62
  GI50: 2.29 µM (inactive)
HCT-116
  GI50: 3.37 µM (inactive)
SF-295
  GI50: 4.95 µM (inactive)
KM-20L2
  GI50: 4.49 µM (inactive)
DMS-273
  GI50: 5.55 µM (inactive)
XF498
  GI50: 2.82 µM (inactive)
SNB-75
  GI50: 3.84 µM (inactive)
U-251
  GI50: 3.27 µM (inactive)
COLO 205
  GI50: 3.27 µM (inactive)
SK-OV-3
  GI50: 4.69 µM (inactive)
HCC 2998
  GI50: 2.32 µM (inactive)
K562
  GI50: 2.67 µM (inactive)
CAKI-1
  GI50: 4.02 µM (inactive)
SF-539
  GI50: 3.34 µM (inactive)
NCI-H23
  GI50: 2.64 µM (inactive)
RXF 393
  GI50: 1.77 µM (inactive)
SR
  GI50: 5.57 µM (inactive)
M19-MEL
  GI50: 3.52 µM (inactive)
HOP-18
  GI50: 1.58 µM (inactive)
A498
  GI50: 2.47 µM (inactive)
HCT-15
  GI50: 6.79 µM
RXF 631
  GI50: 2.9 µM (inactive)
SW-620
  GI50: 5.07 µM (inactive)
UO-31
  GI50: 2.6 µM (inactive)
SK-MEL-5
  GI50: 2.8 µM (inactive)
IGROV-1
  GI50: 3.27 µM (inactive)
NCI-H226
  GI50: 3.55 µM (inactive)
A549
  GI50: 4.62 µM (inactive)
OVCAR-4
  GI50: 4.52 µM (inactive)
SK-MEL-28
  GI50: 3.33 µM (inactive)
DMS-114
  GI50: 2.35 µM (inactive)
ACHN
  GI50: 3.2 µM (inactive)
OVCAR-8
  GI50: 4.33 µM (inactive)
RPMI-8226
  GI50: 2.33 µM (inactive)
SF-268
  GI50: 4.97 µM (inactive)
M14
  GI50: 3.65 µM (inactive)
OVCAR-5
  GI50: 4.53 µM (inactive)
HT-29
  GI50: 3.62 µM (inactive)
NCI-H460
  GI50: 3.01 µM (inactive)
LXFL 529
  GI50: 2.9 µM (inactive)
HL-60
  GI50: 2.19 µM (inactive)
EKVX
  GI50: 3.85 µM (inactive)
OVCAR-3
  GI50: 2.67 µM (inactive)
HOP-62
  GI50: 2.49 µM (inactive)
KM12
  GI50: 4.68 µM (inactive)
